Reference: patent US20260248775A1, “NEW INHIBITORS OF PHOSPHATIDYLINOSITOL 3-KINASE” (INSTITUT NATIONAL DE LA SANTÉ ET DE LA RECHERCHE MÉDICALE, priority 2022, published 2026)

Key:
PI3K-δ = PI3K-δ (Homo sapiens, UniProt O00329); experiment: PI3K-inhibitory activity, enzymatic HTRF assay, PI3K-δ; assay type: biochemical; conditions: read-out: Class IC50 PI3K-δ
PI3K-γ = PI3K-γ (Homo sapiens, UniProt P48736); experiment: PI3K-inhibitory activity, enzymatic HTRF assay, PI3K-γ; assay type: biochemical; conditions: read-out: Class IC50 PI3K-γ
PI3K-γ, sequence (P48736 whole entry): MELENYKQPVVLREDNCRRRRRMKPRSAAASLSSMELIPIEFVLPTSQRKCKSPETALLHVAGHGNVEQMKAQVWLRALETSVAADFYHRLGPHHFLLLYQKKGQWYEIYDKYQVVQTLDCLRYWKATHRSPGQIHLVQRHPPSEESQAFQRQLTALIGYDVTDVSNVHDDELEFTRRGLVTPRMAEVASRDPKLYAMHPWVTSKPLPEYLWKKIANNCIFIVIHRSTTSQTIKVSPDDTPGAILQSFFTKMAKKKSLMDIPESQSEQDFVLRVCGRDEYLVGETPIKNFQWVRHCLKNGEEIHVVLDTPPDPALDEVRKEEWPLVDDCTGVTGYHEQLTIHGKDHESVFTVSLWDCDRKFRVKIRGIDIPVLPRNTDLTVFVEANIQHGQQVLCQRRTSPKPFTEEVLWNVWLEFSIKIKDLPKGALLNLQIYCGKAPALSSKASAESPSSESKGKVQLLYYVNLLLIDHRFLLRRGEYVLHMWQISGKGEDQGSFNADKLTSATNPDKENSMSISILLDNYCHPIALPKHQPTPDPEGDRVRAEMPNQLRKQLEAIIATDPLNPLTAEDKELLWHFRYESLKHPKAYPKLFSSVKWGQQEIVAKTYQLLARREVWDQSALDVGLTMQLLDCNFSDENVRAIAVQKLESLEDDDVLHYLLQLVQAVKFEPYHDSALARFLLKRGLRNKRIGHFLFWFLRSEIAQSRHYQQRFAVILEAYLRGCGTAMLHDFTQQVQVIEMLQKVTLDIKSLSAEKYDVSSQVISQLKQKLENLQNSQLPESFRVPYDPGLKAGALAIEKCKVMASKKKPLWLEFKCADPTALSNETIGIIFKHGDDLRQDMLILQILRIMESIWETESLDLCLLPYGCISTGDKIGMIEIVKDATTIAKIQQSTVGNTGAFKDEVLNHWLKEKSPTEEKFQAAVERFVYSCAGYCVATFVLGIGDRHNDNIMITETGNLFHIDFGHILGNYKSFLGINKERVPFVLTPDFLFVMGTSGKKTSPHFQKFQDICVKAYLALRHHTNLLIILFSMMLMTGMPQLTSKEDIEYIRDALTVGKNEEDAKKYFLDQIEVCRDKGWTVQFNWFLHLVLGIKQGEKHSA
Procedure: [The procedure below names another target; the source lists this target under the same test.] (§1) Inhibitory activity of compounds against the Human PtdIns (4,5) P 3-kinase activity was quantified employing the enzymatic HTRF (Homogeneous Time Resolved Fluorescence) Assay.
(§2) PI3K p110a/[…] (h) is incubated in assay buffer containing 10 μM phosphatidylinositol 4,5-bisphosphate and Mg/ATP (concentration as required). The reaction is initiated by the addition of the ATP solution. After incubation for 30 minutes at room temperature, the reaction is stopped by the addition of stop solution containing EDTA and biotinylated phosphatidylinositol-3,4,5-trisphosphate. Finally, detection buffer is added, which contains europium-labelled anti-GST monoclonal antibody, GST-tagged GRP1 PH domain and streptavidin allophycocyanin. The plate is then read in time resolved fluorescence mode and the homogeneous time-resolved fluorescence (HTRF) signal is determined according to the formula HTRF=10000×(Em665 nm/Em620 nm)

PI3K-β = PI3K-β (Homo sapiens, UniProt P42338); experiment: PI3K-inhibitory activity, enzymatic HTRF assay, PI3K-β; assay type: biochemical; conditions: read-out: Class IC50 PI3K-β
PI3K-β, sequence (P42338 whole entry): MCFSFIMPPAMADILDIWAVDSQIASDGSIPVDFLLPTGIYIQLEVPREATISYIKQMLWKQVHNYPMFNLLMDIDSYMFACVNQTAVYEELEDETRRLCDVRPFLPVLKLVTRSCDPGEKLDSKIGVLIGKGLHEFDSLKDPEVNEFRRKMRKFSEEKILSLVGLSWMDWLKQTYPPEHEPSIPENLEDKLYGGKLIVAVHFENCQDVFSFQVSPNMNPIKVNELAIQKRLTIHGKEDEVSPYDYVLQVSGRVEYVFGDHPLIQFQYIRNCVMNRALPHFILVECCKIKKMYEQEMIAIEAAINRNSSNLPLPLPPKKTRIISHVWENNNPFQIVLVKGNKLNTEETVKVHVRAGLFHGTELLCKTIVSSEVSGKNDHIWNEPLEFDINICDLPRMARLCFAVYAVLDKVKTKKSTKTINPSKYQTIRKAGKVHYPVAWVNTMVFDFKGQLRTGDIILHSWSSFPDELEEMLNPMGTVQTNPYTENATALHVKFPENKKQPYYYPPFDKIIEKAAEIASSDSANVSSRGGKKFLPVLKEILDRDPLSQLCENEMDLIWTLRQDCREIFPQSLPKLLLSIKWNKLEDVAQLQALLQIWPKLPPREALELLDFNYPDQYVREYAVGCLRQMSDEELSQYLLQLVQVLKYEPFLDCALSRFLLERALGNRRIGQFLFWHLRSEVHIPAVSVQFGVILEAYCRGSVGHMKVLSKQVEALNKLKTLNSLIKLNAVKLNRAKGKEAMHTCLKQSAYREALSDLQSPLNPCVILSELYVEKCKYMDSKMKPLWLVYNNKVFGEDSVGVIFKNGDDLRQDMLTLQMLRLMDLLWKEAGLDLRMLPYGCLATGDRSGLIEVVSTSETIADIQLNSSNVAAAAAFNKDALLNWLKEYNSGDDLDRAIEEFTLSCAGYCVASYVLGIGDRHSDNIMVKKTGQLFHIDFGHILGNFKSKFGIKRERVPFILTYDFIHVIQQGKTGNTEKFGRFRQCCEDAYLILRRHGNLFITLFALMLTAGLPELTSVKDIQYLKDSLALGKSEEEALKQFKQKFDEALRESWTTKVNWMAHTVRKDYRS
PI3K-β, sequence (P27986 whole entry partner): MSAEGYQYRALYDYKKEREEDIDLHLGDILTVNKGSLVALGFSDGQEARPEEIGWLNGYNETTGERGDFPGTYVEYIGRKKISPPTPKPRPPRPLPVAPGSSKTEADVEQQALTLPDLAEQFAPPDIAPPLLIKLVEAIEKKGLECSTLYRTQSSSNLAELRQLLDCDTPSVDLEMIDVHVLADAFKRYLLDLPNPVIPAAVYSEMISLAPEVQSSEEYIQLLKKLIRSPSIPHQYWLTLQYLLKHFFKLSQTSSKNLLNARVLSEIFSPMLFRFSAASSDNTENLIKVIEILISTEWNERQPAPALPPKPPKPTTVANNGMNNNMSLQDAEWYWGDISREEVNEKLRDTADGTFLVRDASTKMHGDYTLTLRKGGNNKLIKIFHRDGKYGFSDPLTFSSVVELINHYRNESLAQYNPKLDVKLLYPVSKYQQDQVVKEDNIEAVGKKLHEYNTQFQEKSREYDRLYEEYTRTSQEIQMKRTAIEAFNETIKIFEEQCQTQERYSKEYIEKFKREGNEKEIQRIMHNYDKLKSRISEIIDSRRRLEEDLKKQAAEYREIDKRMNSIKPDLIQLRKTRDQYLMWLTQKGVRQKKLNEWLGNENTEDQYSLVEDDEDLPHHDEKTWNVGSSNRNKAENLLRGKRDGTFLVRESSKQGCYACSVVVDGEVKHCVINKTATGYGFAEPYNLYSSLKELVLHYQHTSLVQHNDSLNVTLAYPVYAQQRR
Procedure: [The procedure below names another target; the source lists this target under the same test.] as §1, §2

[1] = target: PI3K-α (PI3K p110a/p65a (h)) (Homo sapiens, UniProt P42336); experiment: PI3K-inhibitory activity, enzymatic HTRF assay, PI3K-α; assay type: biochemical; conditions: 10 μM PIP2, 30 minutes at room temperature, read-out: Class IC50 PI3K-α
PI3K-α (PI3K p110a/p65a (h)), sequence (P42336 whole entry): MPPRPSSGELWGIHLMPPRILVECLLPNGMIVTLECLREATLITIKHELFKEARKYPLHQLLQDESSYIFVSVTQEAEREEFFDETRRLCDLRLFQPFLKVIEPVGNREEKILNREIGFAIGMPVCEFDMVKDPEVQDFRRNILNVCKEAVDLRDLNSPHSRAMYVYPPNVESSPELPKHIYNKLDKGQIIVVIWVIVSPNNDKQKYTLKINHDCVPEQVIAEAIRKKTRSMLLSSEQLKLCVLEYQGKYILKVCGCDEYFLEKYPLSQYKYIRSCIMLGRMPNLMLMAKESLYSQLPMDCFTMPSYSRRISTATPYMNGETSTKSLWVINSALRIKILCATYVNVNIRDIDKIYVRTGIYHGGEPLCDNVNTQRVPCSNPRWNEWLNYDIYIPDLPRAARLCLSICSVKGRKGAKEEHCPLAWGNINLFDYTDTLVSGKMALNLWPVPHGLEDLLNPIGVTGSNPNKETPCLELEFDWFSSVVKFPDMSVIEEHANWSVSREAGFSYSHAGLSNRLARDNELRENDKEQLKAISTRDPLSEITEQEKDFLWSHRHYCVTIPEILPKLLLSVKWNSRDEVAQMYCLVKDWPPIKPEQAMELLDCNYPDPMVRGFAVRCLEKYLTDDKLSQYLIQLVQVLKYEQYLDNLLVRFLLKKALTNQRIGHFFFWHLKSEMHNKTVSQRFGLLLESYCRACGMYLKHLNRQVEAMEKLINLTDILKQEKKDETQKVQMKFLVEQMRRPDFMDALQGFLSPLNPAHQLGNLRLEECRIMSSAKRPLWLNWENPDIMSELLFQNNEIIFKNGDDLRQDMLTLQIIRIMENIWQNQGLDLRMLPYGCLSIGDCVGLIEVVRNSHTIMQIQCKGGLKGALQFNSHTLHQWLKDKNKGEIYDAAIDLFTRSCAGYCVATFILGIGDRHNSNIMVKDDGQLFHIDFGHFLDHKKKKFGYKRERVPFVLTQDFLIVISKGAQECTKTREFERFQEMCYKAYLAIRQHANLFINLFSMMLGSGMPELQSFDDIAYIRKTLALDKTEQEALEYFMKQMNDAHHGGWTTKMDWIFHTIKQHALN
Procedure: as §1, §2

[2] = Blood glucose after repeated oral gavage in C57B16 mice; assay type: in vivo, mouse; conditions: 50 mg/kg oral gavage daily for 5 days, measured on day 6, C57B16 mice, vs vehicle
Procedure: C57B16 mice (n=6 mice per group, 3 males and 3 females) aged of 8 weeks old were daily treated by either vehicle or Compound 5 (50 mg/kg) during 5 consecutive days through oral gavage.
On day 6, blood glucose concentrations were measured at different time points before and after drug administration.

[3] = Blood insulin concentration after repeated oral gavage in C57B16 mice; assay type: in vivo, mouse; conditions: 50 mg/kg oral gavage daily for 5 days, plasma on day 6, male C57B16 mice, FIG. 2
Procedure: FIG. 2 illustrates the variation of insulin over time for the groups of mice treated either with a vehicle or with Compound 5 of the invention. Ordinate: insulin (ng/ml). Abscissa: time (hours).
C57B16 mice (n=3 mice per group, 3 males) aged of 8 weeks old were daily treated by either vehicle or Compound 5 (50 mg/kg) during 5 consecutive days through oral gavage. On day 6, insulin concentrations were measured at different time points before and after drug administration.
Insulin level was measured in plasma (7 μL in duplicate) using MSD u.plex (Mesoscale, ref 1526HK).

NZBWF1/J mice = experiment: Kidney lesions in lupus model, uninephrectomized NZBWF1/J mice; assay type: in vivo, mouse; conditions: 50 mg/kg/day orally
Procedure: FIG. 1 (A to C) illustrates the ability of Compound 5 of the invention to improve kidney lesions in NZBWF1/J mouse model. A. Urinary albumin to creatinine ratio (Ualb/Cre) (Ordinate, mg/mmol). Abscissa (From left to right): Vehicle and Compound 5 (50 mg/kg). B. Blood urea nitrogen level (BUN) (Ordinate, mmol/L). Abscissa (From left to right): Vehicle and Compound 5 (50 mg/kg). C. Glomerular lesion score of kidneys 4 weeks after uninephrectomy followed by treatment with either the vehicle or Compound 5 (n=6 mice per group). AU: Arbitrary Unit (Ordinate). Abscissa (From left to right): Vehicle and Compound 5 (50 mg/kg).
NZBWF1/J mice gradually develop immune glomerulonephritis characterized by proteinuria and kidney dysfunction starting around 25 weeks of age. The uninephrectomy model was employed and uninephrectomy was performed on 12 female mice at 24 weeks of age.
As the incidence and severity of symptoms are more pronounced in females, only females were used in this study. The mice were then randomly assigned to receive either the vehicle (n=6) or Compound 5 50 mg/kg/day orally (n=6) for a duration of 4 weeks. At the end of the treatment period, the mice were sacrificed and their kidney histology was compared to samples obtained during the uninephrectomy procedure.

PI3K-δ, sequence (O00329 whole entry): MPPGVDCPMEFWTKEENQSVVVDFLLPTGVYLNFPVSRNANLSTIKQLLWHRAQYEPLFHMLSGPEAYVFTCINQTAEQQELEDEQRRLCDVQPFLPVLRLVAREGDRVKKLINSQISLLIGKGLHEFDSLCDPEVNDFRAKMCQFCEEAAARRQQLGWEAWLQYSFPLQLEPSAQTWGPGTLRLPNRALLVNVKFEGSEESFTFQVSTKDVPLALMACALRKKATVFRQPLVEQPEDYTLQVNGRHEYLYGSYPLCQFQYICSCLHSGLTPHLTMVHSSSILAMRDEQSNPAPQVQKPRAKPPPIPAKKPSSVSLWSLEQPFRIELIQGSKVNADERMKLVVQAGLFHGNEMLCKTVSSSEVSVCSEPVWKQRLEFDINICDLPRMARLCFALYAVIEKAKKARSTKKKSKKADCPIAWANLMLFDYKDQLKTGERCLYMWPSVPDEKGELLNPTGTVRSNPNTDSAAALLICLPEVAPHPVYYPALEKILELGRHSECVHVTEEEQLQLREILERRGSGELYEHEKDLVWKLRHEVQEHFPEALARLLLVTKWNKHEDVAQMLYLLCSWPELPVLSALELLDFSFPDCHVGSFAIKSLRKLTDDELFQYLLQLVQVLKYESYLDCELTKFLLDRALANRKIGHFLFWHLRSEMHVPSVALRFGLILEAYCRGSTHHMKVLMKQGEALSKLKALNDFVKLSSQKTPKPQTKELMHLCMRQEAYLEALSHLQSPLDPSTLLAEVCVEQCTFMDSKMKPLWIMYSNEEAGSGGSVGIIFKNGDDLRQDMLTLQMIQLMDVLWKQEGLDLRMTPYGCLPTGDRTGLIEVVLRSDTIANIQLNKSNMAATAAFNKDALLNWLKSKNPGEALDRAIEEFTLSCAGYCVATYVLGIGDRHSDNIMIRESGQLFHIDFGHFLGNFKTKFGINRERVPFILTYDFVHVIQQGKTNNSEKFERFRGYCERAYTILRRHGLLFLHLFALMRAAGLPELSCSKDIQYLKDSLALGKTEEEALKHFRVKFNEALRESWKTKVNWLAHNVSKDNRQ
PI3K-δ, sequence (P27986 whole entry partner): as the sequence (P27986 whole entry partner) above

Row | SMILES | IC50 (PI3K-δ) [nM] | IC50 (PI3K-γ) [nM] | IC50 (PI3K-β) [nM] | IC50 [1] [nM] | blood glucose [2] | blood insulin concentration [3] | glomerular lesions (glomerular lesion score) (NZBWF1/J mice; 4 weeks after uninephrectomy, histology, FIG. 1C) | kidney-to-body weight ratio (NZBWF1/J mice; 4 weeks, female uninephrectomized NZBWF1/J mice) | albuminuria (urinary albumin to creatinine ratio) (NZBWF1/J mice; 4 weeks, female uninephrectomized NZBWF1/J mice, vs vehicle, FIG. 1A) | blood urea nitrogen levels (NZBWF1/J mice; 4 weeks, female uninephrectomized NZBWF1/J mice, vs vehicle, FIG. 1B)
1 | Cc1nc(NC(=O)N2CC(F)(F)C[C@H]2C(N)=S)sc1-c1ccnc(C(C)(C)C(F)(F)F)c1 [Compound 1, (S)-2-carbamothioyl-4,4-difluoro-N-(4-methyl-5-(2-(1,1,1-trifluoro-2-methylpropan-2-yl)pyridin-4-yl)thiazol-2-yl)pyrrolidine-1-carboxamide] | 200 to 500 | > 1000 | > 1000 | 200 to 500 | – | – | – | – | – | –
2 | Cc1nc(NC(=O)N2C[C@H](F)C[C@H]2C(N)=S)sc1-c1ccnc(C(C)(C)C(F)(F)F)c1 [Compound 2, (2S,4R)-2-carbamothioyl-4-fluoro-N-(4-methyl-5-(2-(1,1,1-trifluoro-2-methylpropan-2-yl)pyridin-4-yl)thiazol-2-yl)pyrrolidine-1-carboxamide] | 200 to 500 | 200 to 500 | > 1000 | 50 to 200 | – | – | – | – | – | –
3 | Cc1nc(NC(=O)N2C[C@@H](F)C[C@H]2C(N)=S)sc1-c1ccnc(C(C)(C)C(F)(F)F)c1 [Compound 3, (2S,4S)-2-carbamothioyl-4-fluoro-N-(4-methyl-5-(2-(1,1,1-trifluoro-2-methylpropan-2-yl)pyridin-4-yl)thiazol-2-yl)pyrrolidine-1-carboxamide] | > 1000 | 200 to 500 | > 1000 | 50 to 200 | – | – | – | – | – | –
4 | Cc1nc(NC(=O)N2CC3(C[C@H]2C(N)=S)CC3(F)F)sc1-c1ccnc(C(C)(C)C(F)(F)F)c1 (stereo partly drawn) [Compound 4, (S)-6-carbamothioyl-N-(4-methyl-5-(2-(1,1,1-trifluoro-2-methylpropan-2-yl)pyridin-4-yl)thiazol-2-yl)-1,1-difluoro-5-azaspiro[2,4]heptane-5-carboxamide] | > 1000 | > 1000 | > 1000 | > 1000 | – | – | – | – | – | –
5 | Cc1nc(NC(=O)N2CCC[C@H]2C(N)=S)sc1-c1ccnc(C(C)(C)C(F)(F)F)c1 [Compound 5, (S)-2-carbamothioyl-N-(4-methyl-5-(2-(1,1,1-trifluoro-2-methylpropan-2-yl)pyridin-4-yl)thiazol-2-yl)pyrrolidine-1-carboxamide] | 200 to 500 | 200 to 500 | > 1000 | ≤ 50 | modest increase | no increase | remained stable | notably decreased | significant reductions | significant reductions
6 | Cc1nc(NC(=O)N2CCC[C@@]2(C)C(N)=S)sc1-c1ccnc(C(C)(C)C(F)(F)F)c1 [Compound 6, (S)-2-carbamothioyl-2-methyl-N-(4-methyl-5-(2-(1,1,1-trifluoro-2-methylpropan-2-yl)pyridin-4-yl)thiazol-2-yl)pyrrolidine-1-carboxamide] | > 1000 | > 1000 | > 1000 | > 1000 | – | – | – | – | – | –
7 | CO[C@@H]1C[C@@H](C(N)=S)N(C(=O)Nc2nc(C)c(-c3ccnc(C(C)(C)C(F)(F)F)c3)s2)C1 [Compound 7, (2S,4R)-2-carbamothioyl-4-methoxy-N-(4-methyl-5-(2-(1,1,1-trifluoro-2-methylpropan-2-yl)pyridin-4-yl)thiazol-2-yl)pyrrolidine-1-carboxamide] | 500 to 1000 | 200 to 500 | > 1000 | 50 to 200 | – | – | – | – | – | –
8 | CO[C@H]1C[C@@H](C(N)=S)N(C(=O)Nc2nc(C)c(-c3ccnc(C(C)(C)C(F)(F)F)c3)s2)C1 [Compound 8, (2S,4S)-2-carbamothioyl-4-methoxy-N-(4-methyl-5-(2-(1,1,1-trifluoro-2-methylpropan-2-yl)pyridin-4-yl)thiazol-2-yl)pyrrolidine-1-carboxamide] | 500 to 1000 | 200 to 500 | > 1000 | 50 to 200 | – | – | – | – | – | –
9 | Cc1nc(NC(=O)N2[C@H](C)CC[C@H]2C(N)=S)sc1-c1ccnc(C(C)(C)C(F)(F)F)c1 [Compound 9, (2S,5R)-2-carbamothioyl-5-methyl-N-(4-methyl-5-(2-(1,1,1-trifluoro-2-methylpropan-2-yl)pyridin-4-yl)thiazol-2-yl)pyrrolidine-1-carboxamide] | > 1000 | > 1000 | > 1000 | 200 to 500 | – | – | – | – | – | –
10 | Cc1nc(NC(=O)N2[C@@H](C)CC[C@H]2C(N)=S)sc1-c1ccnc(C(C)(C)C(F)(F)F)c1 [Compound 10, (2S,5S)-2-carbamothioyl-5-methyl-N-(4-methyl-5-(2-(1,1,1-trifluoro-2-methylpropan-2-yl)pyridin-4-yl)thiazol-2-yl)pyrrolidine-1-carboxamide] | > 1000 | > 1000 | > 1000 | > 1000 | – | – | – | – | – | –
11 | Cc1nc(NC(=O)N2C[C@@H](C(F)(F)F)C[C@H]2C(N)=S)sc1-c1ccnc(C(C)(C)C(F)(F)F)c1 [Compound 12, (2S,4S)-2-carbamothioyl-N-(4-methyl-5-(2-(1,1,1-trifluoro-2-methylpropan-2-yl)pyridin-4-yl)thiazol-2-yl)-4-(trifluoromethyl)pyrrolidine-1-carboxamide] | > 1000 | > 1000 | > 1000 | 500 to 1000 | – | – | – | – | – | –
12 | Cc1nc(NC(=O)N2C[C@H](O)C[C@H]2C(N)=S)sc1-c1ccnc(C(C)(C)C(F)(F)F)c1 [Compound 13, (2S,4R)-2-carbamothioyl-4-hydroxy-N-(4-methyl-5-(2-(1,1,1-trifluoro-2-methylpropan-2-yl)pyridin-4-yl)thiazol-2-yl)pyrrolidine-1-carboxamide] | 200 to 500 | 200 to 500 | > 1000 | ≤ 50 | – | – | – | – | – | –
13 | Cc1nc(NC(=O)N2CC[C@H](O)[C@H]2C(N)=S)sc1-c1ccnc(C(C)(C)C(F)(F)F)c1 [Compound 14, (2S,3S)-2-carbamothioyl-3-hydroxy-N-(4-methyl-5-(2-(1,1,1-trifluoro-2-methylpropan-2-yl)pyridin-4-yl)thiazol-2-yl)pyrrolidine-1-carboxamide] | 200 to 500 | 200 to 500 | > 1000 | ≤ 50 | – | – | – | – | – | –
